Results on one compound are retold here after patent US8158389B2, “Products and methods for in vivo secretion of monatin” (priority 2005, dated 2012).

Values joined by “and” are separate entries in the source; they are usually repeats but may differ in a detail not shown here. Equal values may be shown once.

The test system of one experiment is E. coli MG1655 ΔAcrAB. The experiment is described as follows: Monatin excretion with 2.5 mM sodium decanoate, E. coli MG1655 ΔAcrAB strains with pUC19, robA, ramA or baeR (24, 30, 48 h). It counts as cell-based, Escherichia coli. How it is done:
Conditions for the treatments included 250 rpm agitation throughout and 37° C. up to induction, then, 30° C. following induction. At 0.30-0.50 OD600 nm, induction of the plasmid genes was initiated. At induction, 1.0 mM IPTG, 0.5% L-arabinose, 0.5 mM pyridoxine hydrochloride, and 0.2 mLs of Balch's vitamins were added. Additions of 10 g/L L-tryptophan, 10 g/L sodium pyruvate, 0.04 mM pyridoxal-5′-phosphate (“PLP”) and 0.2% Tween® 20 (polyoxyethylene 20-sorbitan monolaurate) were made 3 hours following induction. Some treatments included 2.5 mM sodium decanoate addition at 3 hours following induction.
Conditions for the treatments included 250 rpm agitation throughout and 37° C. up to induction, then, 30° C. following induction. At an OD600 nm between 0.30-0.50, induction of the plasmid genes was initiated. At induction, 1.0 mM IPTG, 0.5% L-arabinose, 0.5 mM pyridoxine hydrochloride, and 0.2 mLs of Balch's vitamins were added. Additions of 10 g/L L-tryptophan, 10 g/L sodium pyruvate, 0.04 mM pyridoxal-5′-phosphate (“PLP”) and 0.2% Tween® 20 (polyoxyethylene 20-sorbitan monolaurate) were made 3 hours following induction. Some treatments included 2.5 mM sodium decanoate addition at 3 hours following induction.
Conditions for the treatments included 250 rpm agitation throughout and 37° C. up to induction, then, 30° C. following induction. At 0.35-0.38 OD600 nm, induction of the plasmid genes was initiated. At induction, 1.0 mM IPTG, 0.5% L-arabinose, 0.5 mM pyridoxine hydrochloride, and 0.2 mLs of Balch's vitamins were added. Additions of 10 g/L L-tryptophan, 10 g/L sodium pyruvate, 0.04 mM pyridoxal-5′-phosphate (“PLP”) and 0.2% Tween® 20 (polyoxyethylene 20-sorbitan monolaurate) were made 3.5 hours following induction. At 24 hours after inoculation, another 10 g/L increment of sodium pyruvate was added to each flask. Some treatments included 2.5 mM sodium decanoate addition at 3.5 hours following induction.

The next experiment addresses T1, AcrAB efflux pump (Escherichia coli, UniProt P31224).
T1 construct: endogenous in cells; host or cells: E. coli BL21 (DE3) with aspCproApET32 plus pProNde with or without tolC
The experiment is described as follows: Monatin excretion with 2.5 mM sodium decanoate treatment, strains with or without tolC overexpression. The format is cell-based. The conditions noted are these: for Monatin/dry cell weight, 25 hr average / Monatin/dry cell weight, 50 hr average: n = 2. How it is done: Strains used for the experiment included E. coli BL21 (DE3) : : aspCproApET32 and tolC pProNde or pProNde without tolC. For inoculum, the E. coli strains were grown overnight at 37° C. and 250 rpm in Luria-Bertani (“LB”) medium with 100 μg/mL ampicillin and 50 μg/mL kanamycin.
For the experimental treatments, Trp-1+glucose medium, a minimal medium that has been used for increased production of tryptophan in E. coli cells (Zeman, et al. Folia Microbiol. 35:200-204, (1990)), was prepared as follows. To 800 mL nanopure water the following reagents were added: 2 g (NH4)2SO4 and 13.6 g KE2PO4. The pH was adjusted to 7.0, the volume was increased to 948 mL, and the medium was autoclaved. Following sterilization, 0.2 g MgSO4.7H2O, 0.01 g CaCl2.2H2O, and 0.5 mg FeSO4.7H2O were added to the medium in a 1.8 mL volume followed by addition of 0.2 mL of Neidhardt's micronutrient solution. Neidhardt, F. C., et al., “Culture medium for Enterobacteria,” J. Bacteriol. 119:736-746, (1974). Neidhardt's medium includes (per liter): 0.18 g (NH4)6(MO7)24-4H2O, 1.24 g H3BO3, 0.36 g CoCl2.6H2O, 0.12 g CuSO4 (anhydrous), 0.8 g MnCl2.4H2O, and 0.14 g ZnSO4.7H2O. A 50% glucose solution was prepared separately and sterile-filtered. Forty mL of glucose solution and 10 mL of 1 M 3-Morpholinopropanesulfonic acid (“MOPS”) buffer were added to the base medium (950 mL) for a 1 L final volume.
Conditions for the treatments included 30° C. throughout the experiment and 250 rpm agitation. At 0.4 OD600 nm, induction of the plasmid genes was initiated. At induction, 0.5 mM IPTG, 0.5% arabinose, 0.5 mM pyridoxine hydrochloride, and 0.2 mL of Balch's vitamins (Balch, W. E., et al., “Methanogens: reevaluation of a unique biological group,” Microbiol. Rev. 43:260-296, (1979)) were added. […] Some treatments included 2.5 mM sodium decanoate addition at 3 hours following induction.
The amount of monatin excreted was determined using the method described in Example 13.
In this example, the combination of induction of the AcrAB efflux pump with increased availability of the TolC channels was evaluated. E. coli strains overexpressing the tolC gene were additionally subjected to treatment with 2.5 mM sodium decanoate to simultaneously induce the AcrAB pumps.

In experiment [1] the test system is E. coli MG1655 ΔAcrAB 6-16::aspCproAproNde. The experiment is described as follows: AcrAB k.o. validation: growth (OD 600 nm) with novobiocin / sodium decanoate, knockout strain. The format is cell-based, Escherichia coli. To be noted: sodium decanoate 2.5 mM; novobiocin 0 ppm. How it is done: Single chloramphenicol-resistant colonies were purified by restreaking on appropriate selective media and single colonies were tested by PCR as previously described for the BW25113 knockout strains, to verify the presence of the emrB and acrAB knockouts. The effects of the emrB and acrAB knockouts on the EmrAB and AcrAB transporter systems respectively were determined by assessing the phenotype of the transport mutants using appropriate antibiotics and comparison to wild type control microorganisms as shown in Table 3.1 and Table 3.2 below.

The mark [2] stands for this setting: ΔAcrAB::aspC proA pProNde del robA pUC19, n = 2.
Setting [3] is: ΔAcrAB::aspC proA pProNde del, ramA pUC19, n = 2.
The mark [4] stands for this setting: ΔAcrAB::aspC proA pProNdedel, pUC19 (control), n = 2.
[5] abbreviates: ΔacrAB AspC ProA pProNde del BaeR pUC19, n = 2.
[6] abbreviates: E. coli BL21 DE3 aspC proApET32 & pProNde w/o tolC (control).
Where [7] appears, read: E. coli BL21 DE3 aspC proApET32 & tolCpProNde.

T1 sequence (P0AE06 25-397): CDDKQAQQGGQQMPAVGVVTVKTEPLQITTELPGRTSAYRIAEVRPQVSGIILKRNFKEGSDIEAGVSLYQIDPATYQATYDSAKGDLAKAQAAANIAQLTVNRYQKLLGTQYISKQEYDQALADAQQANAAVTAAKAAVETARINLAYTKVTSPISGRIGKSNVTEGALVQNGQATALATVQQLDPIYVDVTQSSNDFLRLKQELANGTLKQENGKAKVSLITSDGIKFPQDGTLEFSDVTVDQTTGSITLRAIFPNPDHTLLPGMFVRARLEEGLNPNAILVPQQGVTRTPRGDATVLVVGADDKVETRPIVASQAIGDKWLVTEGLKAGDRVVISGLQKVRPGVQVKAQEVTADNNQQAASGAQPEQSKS
T1 sequence (P02930 23-493, further chain): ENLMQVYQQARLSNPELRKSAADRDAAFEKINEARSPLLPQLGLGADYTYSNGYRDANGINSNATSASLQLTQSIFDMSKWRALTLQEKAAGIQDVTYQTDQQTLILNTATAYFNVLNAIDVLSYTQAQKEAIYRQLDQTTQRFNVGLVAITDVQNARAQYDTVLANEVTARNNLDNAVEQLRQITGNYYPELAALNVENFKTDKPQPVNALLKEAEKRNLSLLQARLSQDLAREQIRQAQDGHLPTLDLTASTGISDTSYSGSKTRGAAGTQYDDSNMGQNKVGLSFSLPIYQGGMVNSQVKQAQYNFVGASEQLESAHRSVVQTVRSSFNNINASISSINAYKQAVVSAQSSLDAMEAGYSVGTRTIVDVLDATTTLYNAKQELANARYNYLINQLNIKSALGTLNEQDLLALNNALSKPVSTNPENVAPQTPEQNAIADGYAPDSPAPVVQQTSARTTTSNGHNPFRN
T1 sequence (P31224 whole entry): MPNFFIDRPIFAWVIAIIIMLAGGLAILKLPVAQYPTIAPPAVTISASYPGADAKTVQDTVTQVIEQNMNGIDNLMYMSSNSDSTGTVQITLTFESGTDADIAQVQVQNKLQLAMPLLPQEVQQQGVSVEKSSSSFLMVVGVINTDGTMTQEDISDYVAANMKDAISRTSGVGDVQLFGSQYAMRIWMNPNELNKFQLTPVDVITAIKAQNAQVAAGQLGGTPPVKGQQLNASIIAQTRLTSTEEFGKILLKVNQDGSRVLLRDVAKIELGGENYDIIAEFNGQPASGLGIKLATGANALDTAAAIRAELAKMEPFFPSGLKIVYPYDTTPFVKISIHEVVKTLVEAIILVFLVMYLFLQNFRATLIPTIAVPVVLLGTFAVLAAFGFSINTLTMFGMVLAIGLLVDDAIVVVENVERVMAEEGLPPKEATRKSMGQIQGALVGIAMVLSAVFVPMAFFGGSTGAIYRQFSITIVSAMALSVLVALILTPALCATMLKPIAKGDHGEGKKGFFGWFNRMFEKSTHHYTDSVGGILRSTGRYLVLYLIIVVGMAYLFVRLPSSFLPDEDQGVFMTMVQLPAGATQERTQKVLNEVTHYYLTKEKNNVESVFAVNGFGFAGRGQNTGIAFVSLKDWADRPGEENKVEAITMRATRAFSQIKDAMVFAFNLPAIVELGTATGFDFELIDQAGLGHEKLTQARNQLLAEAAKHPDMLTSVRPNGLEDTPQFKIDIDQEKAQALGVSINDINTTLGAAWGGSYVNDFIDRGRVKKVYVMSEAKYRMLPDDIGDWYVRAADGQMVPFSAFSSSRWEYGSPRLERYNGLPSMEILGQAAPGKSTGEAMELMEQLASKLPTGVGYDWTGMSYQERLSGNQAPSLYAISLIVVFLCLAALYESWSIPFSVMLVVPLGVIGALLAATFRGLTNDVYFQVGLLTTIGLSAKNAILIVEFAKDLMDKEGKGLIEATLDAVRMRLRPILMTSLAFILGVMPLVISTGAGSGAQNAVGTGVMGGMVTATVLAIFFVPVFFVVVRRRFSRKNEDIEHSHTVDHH

Take `CCCCCCCCCC(=O)[O-].[Na+]` [sodium decanoate]: in the experiment with E. coli MG1655 ΔAcrAB (setting [2]), the “Monatin/dcw, 24 hours” value came out at 45.7 mg/g; the “Monatin/dcw, 30 hours” value came to 58.6 mg/g; the “Monatin/dcw, 48 hours” value worked out at 81.7 mg/g. Further, in the experiment with E. coli MG1655 ΔAcrAB (setting [3]), the “Monatin/dcw, 24 hours” value is on record as 32.3 mg/g; the “Monatin/dcw, 30 hours” value came out at 41.7 mg/g; the “Monatin/dcw, 48 hours” value was 61.1 mg/g. In addition, in the experiment on E. coli MG1655 ΔAcrAB (setting [4]), the “Monatin/dcw, 24 hours” value worked out at 10.7 mg/g; the “Monatin/dcw, 30 hours” value was found to be 29.7 mg/g; the “Monatin/dcw, 48 hours” value came to 39.3 mg/g. In the experiment with E. coli MG1655 ΔAcrAB (setting [5]), the “Mean monatin per dry cell weight, 24 hours” value is 34.4 mg/g; the “Mean monatin per dry cell weight, 30 hours” value is 85.0 mg/g; the “Mean monatin per dry cell weight, 48 hours” value came out at 137.3 mg/g. For the same compound, on AcrAB efflux pump (setting [6]), the “Monatin/dry cell weight, 25 hr” value was 0.19 mg monatin/g dcw and 0.17 mg monatin/g dcw; the “Monatin/dry cell weight, 50 hr” value is 0.09 mg monatin/g dcw and 0.11 mg monatin/g dcw. At AcrAB efflux pump (setting [7]), the “Monatin/dry cell weight, 25 hr” value is 8.88 mg monatin/g dcw and 12.19 mg monatin/g dcw; the “Monatin/dry cell weight, 50 hr” value is 7.99 mg monatin/g dcw and 10.23 mg monatin/g dcw. Also, at AcrAB efflux pump (pProNde w/o tolC (control)), the “Monatin/dry cell weight, 25 hr average” value worked out at 0.18 mg monatin/g dcw and the “Monatin/dry cell weight, 50 hr average” value was 0.10 mg monatin/g dcw. Also, on AcrAB efflux pump (tolCpProNde), the “Monatin/dry cell weight, 25 hr average” value was 10.53 mg monatin/g dcw and the “Monatin/dry cell weight, 50 hr average” value amounted to 9.11 mg monatin/g dcw. The “OD 600 nm at 19 hours” value in experiment [1] is listed as 0.885.
